Experimental data reported in US11000033B2, “Ketone or oxime compound, and herbicide” (NISSAN CHEMICAL CORPORATION, priority 2014, dated 2021).

Columns and labels:
Format in all cases: in vivo
[1] = system: Echinochloa oryzacola Vasing.; assay: Test Example 1: herbicidal activity, application before weed generation in submerged conditions (symbol A); conditions: application herbicide amount 320 g/ha
Outline: (§1)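 Greenhouse growth at 25–30 °C lasted 3 weeks after treatment, when each weed was graded 0–5 by herbicidal ratio. Treatment was a diluted emulsion applied to the water surface of 4 cm-submerged alluvial soil on the sowing day.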

Scirpus juncoides = assay: Test Example 1: herbicidal activity, application before weed generation in submerged conditions (symbol B); conditions: application herbicide amount 320 g/ha
Outline: as §1

transplanted rice plant = assay: Test Example 1: effect on crop, application before weed generation in submerged conditions (symbol a); conditions: application herbicide amount 320 g/ha
Outline: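 Rice at 2.5 leaf stage transplanted into submerged soil (4 cm depth) sown with three weed species; herbicide applied before weed emergence.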

Monochoria vaginalis = assay: Test Example 2: herbicidal activity, application during weed generation in submerged conditions (symbol C); conditions: Table 23; application herbicide amount 320 g/ha; grade 0-5 by criteria of Test Example 1
Outline: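 Weeds emerging under flooded conditions were treated with compound formulated as an emulsion and diluted with water to the intended herbicide amount, poured onto the surface of 4 cm standing water. Seeds had been co-sown in alluvial soil; plants grew at 25° C. to 30° C. and were assessed after 3 weeks.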

[2] = system: directly sowed rice plant; assay: Test Example 3: effect on crop by foliage application, Wagner pot (symbol b); conditions: application herbicide amount 320 g/ha
Outline: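 Alluvial soil in a 1/10000-are Wagner pot was flooded to a water depth of 0.1–0.5 cm. Echinochloa crus-galli var. crus-galli, Leptochloa chinensis, Cyperus difformis and rice were sown into it and grown in a greenhouse at 25–30 °C.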

Avena fatua = assay: Test Example 4: herbicidal effect by soil treatment (symbol I)
Outline: (§2)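 Seeds were sown in sterilized diluvial soil, covered with about 1.5 cm of soil, and the soil surface was sprayed with a water-diluted emulsion of the compound at a predetermined rate. Plants grew in a greenhouse at 25° C. to 30° C.; effects were scored visually 3 weeks after application.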

Alopecurus myosuroides = assay: Test Example 4: herbicidal effect by soil treatment (symbol J)
Outline: as §2

Abutilon theophrasti = assay: Test Example 4: herbicidal effect by soil treatment (symbol M)
Outline: as §2

Amaranthus retroflexus = assay: Test Example 4: herbicidal effect by soil treatment (symbol N)
Outline: as §2

Veronica persica = assay: Test Example 4: herbicidal effect by soil treatment (symbol R)
Outline: as §2

soybean = assay: Test Example 4: effect on crop by soil treatment (symbol d)
Outline: (§3)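 Soil-treatment setup: crop and weed seeds were spot-sown into sterilized diluvial soil, then buried beneath approximately 1.5 cm of it, and the boxes were housed in a 25–30° C. greenhouse.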

beet = assay: Test Example 4: effect on crop by soil treatment (symbol f)
Outline: as §3

rapeseed = assay: Test Example 4: effect on crop by soil treatment (symbol g)
Outline: as §3

Digitaria ciliaris = assay: Test Example 5: herbicidal effect by foliage application, plastic box (symbol F); conditions: 320 g/ha, 3 weeks after application
Outline: (§4)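 Greenhouse foliar test: seedlings at 14 days, grown 25° C. to 30° C. in sterilized diluvial soil; compound applied as an aqueous dilution of an emulsion; response read 3 weeks after spraying.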

[3] = system: Echinochloa crus-galli var. crus-galli; assay: Test Example 5: herbicidal effect by foliage application, plastic box (symbol H); conditions: 320 g/ha, 3 weeks after application
Outline: as §4

[4] = application herbicide amount 320 g/ha

SMILES: Cc1cc(C)c(C2=C(O)CC(CC(=O)c3ccc(F)cc3)C2=O)c(C)c1 (stereo not drawn) [2-032]
- Herbicidal effect grade, A: Echinochloa oryzacola Vasing. [1]: 4 (Herbicidal ratio of 70% or higher and lower than 90%)
- Herbicidal effect grade, B: Scirpus juncoides (Scirpus juncoides): 4 (Herbicidal ratio of 70% or higher and lower than 90%)
- Effect grade on crop, a: transplanted rice plant (transplanted rice plant): 5 (Herbicidal ratio of 90% or more (almost completely withered))
- Herbicidal effect grade, C: Monochoria vaginalis (Monochoria vaginalis): 0 (Herbicidal ratio of 5% or lower (almost no effect))
- effect on crop b (directly sowed rice plant), grade 0-5 [2]: 5 (Herbicidal ratio of 90% or more (almost completely withered))
- I: Avena fatua, herbicidal effect grade (Avena fatua; [4]): 0 (Herbicidal ratio of 5% or lower (almost no effect))
- J: Alopecurus myosuroides, herbicidal effect grade (Alopecurus myosuroides; [4]): 5 (Herbicidal ratio of 90% or more (almost completely withered))
- M: Abutilon theophrasti, herbicidal effect grade (Abutilon theophrasti; [4]): 0 (Herbicidal ratio of 5% or lower (almost no effect))
- N: Amaranthus retroflexus, herbicidal effect grade (Amaranthus retroflexus; [4]): 0 (Herbicidal ratio of 5% or lower (almost no effect))
- R: Veronica persica, herbicidal effect grade (Veronica persica; [4]): 0 (Herbicidal ratio of 5% or lower (almost no effect))
- d: soybean, effect on crop grade (soybean; [4]): 0 (Herbicidal ratio of 5% or lower (almost no effect))
- f: beet, effect on crop grade (beet; [4]): 0 (Herbicidal ratio of 5% or lower (almost no effect))
- g: rapeseed, effect on crop grade (rapeseed; [4]): 1 (Herbicidal ratio of 5% or higher and lower than 20%)
- F: Digitaria ciliaris, herbicidal effect grade (Digitaria ciliaris): 2 (Herbicidal ratio of 20% or higher and lower than 40%)
- H: Echinochloa crus-galli var. crus-galli, herbicidal effect grade [3]: 5 (Herbicidal ratio of 90% or more (almost completely withered))

SMILES: CON=C(C)CC1CC(OC(=O)c2ccc(C(F)(F)F)cc2)=C(c2c(C)cc(C)cc2C)C1=O (stereo not drawn) [1-149]
- Herbicidal effect grade, A: Echinochloa oryzacola Vasing. [1]: 5 (Herbicidal ratio of 90% or more (almost completely withered))
- Herbicidal effect grade, B: Scirpus juncoides (Scirpus juncoides): 5 (Herbicidal ratio of 90% or more (almost completely withered))
- Effect grade on crop, a: transplanted rice plant (transplanted rice plant): 5 (Herbicidal ratio of 90% or more (almost completely withered))
- Herbicidal effect grade, C: Monochoria vaginalis (Monochoria vaginalis): 3 (Herbicidal ratio of 40% or higher and lower than 70%)
- effect on crop b (directly sowed rice plant), grade 0-5 [2]: 5 (Herbicidal ratio of 90% or more (almost completely withered))
- I: Avena fatua, herbicidal effect grade (Avena fatua; 320 g/ha): 0 (Herbicidal ratio of 5% or lower (almost no effect))
- J: Alopecurus myosuroides, herbicidal effect grade (Alopecurus myosuroides; 320 g/ha): 5 (Herbicidal ratio of 90% or more (almost completely withered))
- M: Abutilon theophrasti, herbicidal effect grade (Abutilon theophrasti; 320 g/ha): 5 (Herbicidal ratio of 90% or more (almost completely withered))
- N: Amaranthus retroflexus, herbicidal effect grade (Amaranthus retroflexus; 320 g/ha): 4 (Herbicidal ratio of 70% or higher and lower than 90%)
- R: Veronica persica, herbicidal effect grade (Veronica persica; 320 g/ha): 0 (Herbicidal ratio of 5% or lower (almost no effect))
- d: soybean, effect grade on crop (soybean; 320 g/ha): 0 (Herbicidal ratio of 5% or lower (almost no effect))
- f: beet, effect grade on crop (beet; 320 g/ha): 0 (Herbicidal ratio of 5% or lower (almost no effect))
- g: rapeseed, effect grade on crop (rapeseed; 320 g/ha): 4 (Herbicidal ratio of 70% or higher and lower than 90%)
- F: Digitaria ciliaris, herbicidal effect (criteria 0-5) (Digitaria ciliaris): 5 (Herbicidal ratio of 90% or more (almost completely withered))
- H: Echinochloa crus-galli var. crus-galli, herbicidal effect (criteria 0-5) [3]: 5 (Herbicidal ratio of 90% or more (almost completely withered))
